Data on two molecules can be found in patent US12226417B2, “Fatty liver disease treatment using glucocorticoid and mineralocorticoid receptor antagonists” (Corcept Therapeutics, Inc., priority 2014, dated 2025).

Usually Ki stands for the equilibrium dissociation constant of an inhibitor or competing ligand from its target.

Assay [1] relates to C57B16/J mice given a high fat diet. As to the kind of experiment: Determination of liver lipids in mice fed a high fat diet (Oil Red O staining). The format is in vivo, mouse. The following applies: high fat diet (60% fat) three weeks; for fatty liver compared to the controls: 60 mg/kg/day in the food. The protocol:
C57B16/J mice (n=8 per group) were given a high fat diet (60% fat) for three weeks and then sacrificed. Livers were collected and weighed. Liver slices were prepared and analysed for lipid levels by Oil Red 0 staining (FIGS. 1 and 3). One group of mice received Compound 1 mixed in the food (60 mg/kg/day) whilst another group of mice received vehicle mixed in the food. […] Compound 1 has GR antagonist activity and some MR antagonist activity.

Assay [2] has as its target T1, glucocorticoid receptor (GR) (Homo sapiens, UniProt P04150).
T1 construct: contains endogenous glucocorticoid receptors; endogenous in cells; host or cells: SW1353/MMTV-5 (human chondrosarcoma, stably transfected with pMAMneo-Luc reporter)
T1 sequence (P04150 1-777): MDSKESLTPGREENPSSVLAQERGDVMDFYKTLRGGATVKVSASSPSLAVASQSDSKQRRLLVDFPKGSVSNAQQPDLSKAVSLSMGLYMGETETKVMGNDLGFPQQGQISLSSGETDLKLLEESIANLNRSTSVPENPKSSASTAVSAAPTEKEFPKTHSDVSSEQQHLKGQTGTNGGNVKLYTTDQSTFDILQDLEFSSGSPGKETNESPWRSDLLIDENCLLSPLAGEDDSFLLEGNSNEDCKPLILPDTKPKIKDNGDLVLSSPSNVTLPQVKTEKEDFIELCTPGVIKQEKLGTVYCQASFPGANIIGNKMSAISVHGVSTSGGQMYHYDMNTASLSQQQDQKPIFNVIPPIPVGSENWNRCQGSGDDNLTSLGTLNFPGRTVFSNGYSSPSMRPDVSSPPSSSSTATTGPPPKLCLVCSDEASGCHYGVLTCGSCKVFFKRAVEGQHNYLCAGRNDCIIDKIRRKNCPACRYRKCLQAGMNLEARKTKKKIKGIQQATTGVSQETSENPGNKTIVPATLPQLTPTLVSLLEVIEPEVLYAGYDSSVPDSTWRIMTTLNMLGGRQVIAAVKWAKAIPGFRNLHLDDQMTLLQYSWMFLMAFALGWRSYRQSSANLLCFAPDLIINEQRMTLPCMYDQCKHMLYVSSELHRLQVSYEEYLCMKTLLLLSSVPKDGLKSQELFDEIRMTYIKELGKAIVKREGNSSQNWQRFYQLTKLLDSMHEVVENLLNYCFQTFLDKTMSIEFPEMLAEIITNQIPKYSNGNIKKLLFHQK
As to the kind of experiment: GR reporter gene assay using SW1353/MMTV-5 cells. It counts as cell-based. The protocol: SW1353/MMTV-5 is an adherent human chondrosarcoma cell line that contains endogenous glucocorticoid receptors. It was transfected with a plasmid (pMAMneo-Luc) encoding firefly luciferase located behind a glucocorticoid-responsive element (GRE) derived from a viral promoter (long terminal repeat of mouse mammary tumor virus). A stable cell line SW1353/MMTV-5 was selected with geneticin, which was required to maintain this plasmid.
SW1353/MMTV-5 cells were distributed in 96-well plates and incubated in medium (without geneticin) for 24 hrs.

The next assay has as its target T2, human recombinant MR (Homo sapiens, UniProt P08235).
T2 construct: β-galactosidase enzyme fragment (complementation partner); host or cells: CHO-K1
T2 sequence (P08235 1-984): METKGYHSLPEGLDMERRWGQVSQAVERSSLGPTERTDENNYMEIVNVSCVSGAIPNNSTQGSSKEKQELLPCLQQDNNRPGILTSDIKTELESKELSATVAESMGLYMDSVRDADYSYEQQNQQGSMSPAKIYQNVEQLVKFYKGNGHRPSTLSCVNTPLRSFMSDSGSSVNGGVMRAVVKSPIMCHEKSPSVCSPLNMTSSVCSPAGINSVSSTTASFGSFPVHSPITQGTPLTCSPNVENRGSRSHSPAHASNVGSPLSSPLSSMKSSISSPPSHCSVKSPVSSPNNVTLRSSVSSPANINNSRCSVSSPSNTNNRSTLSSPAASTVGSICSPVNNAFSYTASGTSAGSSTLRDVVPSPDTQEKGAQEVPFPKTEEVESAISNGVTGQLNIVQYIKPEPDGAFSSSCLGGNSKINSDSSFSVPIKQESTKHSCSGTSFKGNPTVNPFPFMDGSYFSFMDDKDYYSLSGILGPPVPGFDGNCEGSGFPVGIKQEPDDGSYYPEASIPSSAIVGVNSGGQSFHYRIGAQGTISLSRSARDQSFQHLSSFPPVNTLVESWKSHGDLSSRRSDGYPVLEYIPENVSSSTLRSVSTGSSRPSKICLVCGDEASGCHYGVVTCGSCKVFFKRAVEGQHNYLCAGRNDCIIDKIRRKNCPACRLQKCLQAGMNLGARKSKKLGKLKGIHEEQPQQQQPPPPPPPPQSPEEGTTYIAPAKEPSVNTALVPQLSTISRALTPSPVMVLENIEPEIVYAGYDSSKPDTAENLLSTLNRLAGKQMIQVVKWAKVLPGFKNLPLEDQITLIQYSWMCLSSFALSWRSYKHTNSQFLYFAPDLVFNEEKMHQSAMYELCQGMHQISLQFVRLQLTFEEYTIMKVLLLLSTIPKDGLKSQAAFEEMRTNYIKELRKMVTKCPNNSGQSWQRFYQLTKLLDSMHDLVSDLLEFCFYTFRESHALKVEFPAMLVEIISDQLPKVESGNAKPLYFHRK
In words: MR protein:protein interaction assay (DiscoveRx, CHO-K1, PGC1α). It counts as cell-based. From the text: (§1) Protein:protein interaction assays were used to determine the ability of test compounds to act as antagonists of the glucocorticoid receptor and/or mineralocorticoid receptor. These assays utilize a commercial assay platform provided by DiscoveRx Corp. (Fremont, CA). DiscoveRx technology is based on β-galactosidase enzyme fragment complementation using a luminogenic substrate. Briefly, Chinese hamster ovary cells (CHO-K1) have been engineered to express either human recombinant GR or MR together with a steroid responsive coactivator protein (SRCP) called PGC1α (peroxisome proliferator activated receptor gamma coactivator lα). The assay measures the net outcome of GR or MR activation, i.e., nuclear translocation from the cytoplasm and interaction of the GR or MR with the coactivator PGC1α in the cell nucleus. The assay can be configured in both agonist and antagonist modes.
The cells (100 μl) were plated into 96 well plates and placed in a 37° C., 5% CO2 incubator for 24 hours. After removing the cells from the incubator, 5 μl of test compound or vehicle was added to each well, and the plates were incubated for 1 hour at 37° C., 5% CO2. […] The detection reagent was added, 55 μl per well, and the plates were incubated at room temperature in the dark without mixing. The plates were read for luminescence using an EnVision® (Perkin Elmer, Walthan, MA) plate reader (3 hour read).

The target of assay [3] is T3, mineralocorticoid receptor (MR) (Homo sapiens, UniProt P08235).
T3 construct: containing endogenous mineralocorticoid and progesterone receptors (PR); endogenous in cells; host or cells: T47D/MMTV-5 (human breast carcinoma, stably transfected with pMAMneo-Luc reporter)
T3 sequence (P08235 1-984): T2 sequence (P08235 1-984)
In words: MR reporter gene assay using T47D/MMTV-5 cells. It counts as cell-based. The protocol:
(§2) As described for the SW1353 cell line above, T47D cells were transfected with the same pMAMneo-Luc plasmid, and stable lines were selected with geneticin.
(§3) T47D/MMTV-5 calls were distributed in 96-well plates (100 μl) in RPMI640 medium+10% charcoal stripped FCS. The cells were incubated for 24 hours in a CO2 oven.
Background: Reporter assays use an easily measured gene product as a stand-in for the process of interest.

The next assay addresses T4, human recombinant GR (Homo sapiens, UniProt P04150).
T4 construct: β-galactosidase enzyme fragment (complementation partner); host or cells: CHO-K1
T4 sequence (P04150 1-777): T1 sequence (P04150 1-777)
As to the kind of experiment: GR protein:protein interaction assay (DiscoveRx, CHO-K1, PGC1α). The format is cell-based.
Text: as §1
The cells (100 μl) were plated into 96 well plates and placed in a 37° C., 5% CO2 incubator for 24 hours. After removing the cells from the incubator, 5 μl of test compound or vehicle was added to each well, and the plates were incubated for 1 hour at 37° C., 5% CO2. […] The detection reagent was added, 55 μl per well, and the plates were incubated at room temperature in the dark without mixing. The plates were read for luminescence using an EnVision® plate reader (3 hour read).

Assay [4] has as its target T5, progesterone receptor (PR) (Homo sapiens, UniProt P06401).
T5 construct: containing endogenous mineralocorticoid and progesterone receptors (PR); endogenous in cells; host or cells: T47D/MMTV-5 (human breast carcinoma, stably transfected with pMAMneo-Luc reporter)
T5 sequence (P06401 1-933): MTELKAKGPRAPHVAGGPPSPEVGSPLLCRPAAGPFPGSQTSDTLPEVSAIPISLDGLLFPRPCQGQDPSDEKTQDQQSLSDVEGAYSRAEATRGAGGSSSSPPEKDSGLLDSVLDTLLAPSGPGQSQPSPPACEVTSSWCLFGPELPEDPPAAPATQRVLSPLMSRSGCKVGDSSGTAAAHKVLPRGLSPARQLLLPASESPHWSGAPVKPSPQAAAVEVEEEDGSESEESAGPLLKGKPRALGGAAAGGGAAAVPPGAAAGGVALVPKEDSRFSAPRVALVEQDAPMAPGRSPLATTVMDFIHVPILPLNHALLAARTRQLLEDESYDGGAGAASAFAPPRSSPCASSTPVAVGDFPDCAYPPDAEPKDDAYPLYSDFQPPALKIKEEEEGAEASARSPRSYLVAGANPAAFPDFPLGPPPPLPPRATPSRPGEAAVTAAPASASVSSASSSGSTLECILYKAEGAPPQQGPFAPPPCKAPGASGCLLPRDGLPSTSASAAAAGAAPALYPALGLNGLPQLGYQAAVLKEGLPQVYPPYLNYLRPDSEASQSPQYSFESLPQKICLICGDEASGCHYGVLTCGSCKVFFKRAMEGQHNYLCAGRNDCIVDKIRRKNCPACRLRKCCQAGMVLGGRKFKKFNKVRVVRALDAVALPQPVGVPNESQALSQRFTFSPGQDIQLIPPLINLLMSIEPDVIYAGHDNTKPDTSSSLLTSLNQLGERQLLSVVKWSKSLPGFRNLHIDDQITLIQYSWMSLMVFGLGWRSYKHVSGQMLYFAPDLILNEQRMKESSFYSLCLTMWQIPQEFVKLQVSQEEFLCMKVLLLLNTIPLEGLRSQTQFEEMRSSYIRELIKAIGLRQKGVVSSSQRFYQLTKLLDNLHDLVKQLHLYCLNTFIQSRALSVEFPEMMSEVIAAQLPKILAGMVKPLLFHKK
As to the kind of experiment: PR reporter gene assay using T47D/MMTV-5 cells. It counts as cell-based. The following applies: antagonist mode, 50 nM progesterone. As to the method:
as §2, §3

`CC#C[C@]1(O)CC[C@H]2[C@@H]3CCC4=CC(=O)CCC4=C3[C@@H](c3ccc(N(C)C)cc3)C[C@@]21C` [mifepristone, reference compound]: the “fatty liver compared to the controls” value in assay [1] is “increased fatty liver compared to the controls”.
Turning to `O=c1[nH]c(=O)c(Cc2cccc(C(F)(F)F)c2)c([C@H]2CC[C@H](c3ccccc3)CC2)[nH]1` [Compound 1, (E)-6-(4-phenylcyclohexyl)-5-(3-trifluoromethylbenzyl)-1H-pyrimidine-2,4-dione], the “fatty liver compared to the controls” value in assay [1] is reported as “did not induce fatty liver”. Moreover, in assay [1] (60 mg/kg/day mixed in the food, versus vehicle control), the “lipid droplets in livers (Oil Red O staining)” value was “no or low level of lipid droplets”. For the same molecule, the Ki in assay [2] amounted to 24 nM; on human recombinant MR it was 125 nM; in assay [3] it was 148 nM; on human recombinant GR, 118 nM. Besides, in assay [4], the “activity in progesterone receptor reporter gene assay” value is “inactive”.
